Tested on: IFN-γ
Assay: In vivo peptide micro-library screening, IFN-γ ELISA of re-stimulated splenocytes relative to A5
Design: species or system mice
Conditions: rank among 100 micro-library peptides; IFN-γ on re-stimulation relative to A5; 5 peptides plus A5 with CPQ
Method: Mice were immunized with 5 library peptides at a time, along with the A5 peptide, with all peptides combined and admixed with CPQ. After two intramuscular injections, splenocytes were collected, and then re-stimulated with each of the synthetic micro-library peptides, individually. Production of IFN-γ was measured and peptide immunogenicity was determined relative to the A5 peptide, which served as in internal control that could induce strong Ag-specific CD8^+ T cell responses.
For Ag screening, multivalent vaccine composed of peptide with the same MHC-I haplotypes (H-2L^d, H-2D^d, or H-2K^d) and the internal A5 peptide were admixed with CPQ. After immunization, only ˜10% of MHC-I binding peptides induced T cells in splenocytes that produced IFN-γ with peptide re-stimulation, and none were nearly as effective as A5 (FIG. 16B). The most highly immunogenic peptides only produced about a quarter of the level of IFN-γ relative to A5. […] It is also feasible that immunization with higher antigen doses of single individual peptides could have induced stronger immunogenic responses, although this would decrease the in vivo peptide micro-library screening throughput.
IFN-γ ELISA: 2.5×10^5 splenocytes were seeded in a 96 wells plate and stimulated with 10 μg/mL antigens for 72 hr. 50 μL of supernatant was collected from each well and subjected to Interferon gamma ELISA (Thermofisher; catalog: BMS606TEN) according to manufacturer protocol.

| Substance | Experimental rank |
| --- | --- |
| H6-SYTEQNVKL-ERR (HHHHHHSYTEQNVKLERR; CT30) | 85 |
| H6-KPFTICKYY-ERR (HHHHHHKPFTICKYYERR; CT88) | 34 |
| H6-SYLRRLPGL-ERR (HHHHHHSYLRRLPGLERR; CT35) | 100 |
| H6-GPPGGFQEF-ERR [CT4] (HHHHHHGPPGGFQEFERR; CT4) | 63 |
| H6-SYTSYIMAI-ERR (HHHHHHSYTSYIMAIERR; CT10) | 69 |
| H6-FPSESEFFK-ERR (HHHHHHFPSESEFFKERR; CT83) | 26 |
| H6-SYIMAICGM-ERR [CT67] | 36 |
| H6-DPFATPLSM-ERR (HHHHHHDPFATPLSMERR; CT21) | 83 |
| H6-MLARKQFDL-ERR (HHHHHHMLARKQFDLERR; CT86) | 60 |
| H6-GPPPHSAPC-ERR (HHHHHHGPPPHSAPCERR; H6 and ERR flanks; CT47) | 71 |
| H6-SYATYLQPA-ERR (HHHHHHSYATYLQPAERR; CT63) | 19 |
| H6-KPYESYTEQ-ERR (HHHHHHKPYESYTEQERR; CT87) | 75 |
| H6-EPQIAMDDM-ERR (HHHHHHEPQIAMDDMERR; CT22) | 74 |
| H6-LYLANLRHM-ERR (HHHHHHLYLANLRHMERR; CT64) | 14 |
| H6-YGKGVNFYL-ERR (HHHHHHYGKGVNFYLERR; CT50) | 68 |
| H6-DPQFAENYV-ERR (HHHHHHDPQFAENYVERR; CT94) | 55 |
| H6-FFMKMASKF-ERR (HHHHHHFFMKMASKFERR; CT73) | 78 |
| H6-PGGFQEFNF-ERR (HHHHHHPGGFQEFNFERR; CT89) | 25 |
| H6-VVEANWTML-ERR (HHHHHHVVEANWTMLERR; CT96) | 2 |
| H6-GRPSIDNVL-ERR (HHHHHHGRPSIDNVLERR; CT51) | 37 |
| H6-FPPQNMFEF-ERR [CT14] (HHHHHHFPPQNMFEFERR; CT14) | 98 |
| H6-RYWTGIGVL-ERR (HHHHHHRYWTGIGVLERR; CT11) | 92 |
| H6-LFVTVLEVI-ERR (HHHHHHLFVTVLEVIERR; CT26) | 91 |
| H6-DSPNRRFTE-ERR (HHHHHHDSPNRRFTEERR; CT60) | 20 |

| Substance | Experimental rank |
| --- | --- |
| H6-LVPNRFSRL-ERR (HHHHHHLVPNRFSRLERR; CT45) | 13 |
| H6-GFPSPLGGI-ERR (HHHHHHGFPSPLGGIERR; CT58) | 42 |
| H6-GHVAAGGAL-ERR (HHHHHHGHVAAGGALERR; CT79) | 46 |
| H6-QFPSESEFF-ERR (HHHHHHQFPSESEFFERR; CT5) | 18 |
| H6-SPKALAHNG-ERR (HHHHHHSPKALAHNGERR; CT37*) | 1 |
| H6-TPHVLWSWG-ERR (HHHHHHTPHVLWSWGERR; CT97) | 4 |
| H6-YYESDEFTV-ERR (HHHHHHYYESDEFTVERR; CT65) | 17 |
| H6-EGPHGQPVS-ERR (HHHHHHEGPHGQPVSERR; CT54) | 57 |
| H6-SPNRRFTEM-ERR (HHHHHHSPNRRFTEMERR; CT17) | 58 |
| H6-TGRRRTATK-ERR (HHHHHHTGRRRTATKERR; CT59) | 30 |
| H6-VYFVAGVRV-ERR (HHHHHHVYFVAGVRVERR; H6 and ERR flanks; CT71) | 3 |
| H6-YVYEIYMTF-ERR (HHHHHHYVYEIYMTFERR; CT98) | 9 |
| H6-IPIFHILNT-ERR (HHHHHHIPIFHILNTERR; CT85) | 8 |
| H6-LFLKSPTAL-ERR (HHHHHHLFLKSPTALERR; CT34) | 99 |
| H6-WGAWLSGAL-ERR (HHHHHHWGAWLSGALERR; CT42) | 28 |
| H6-YYMRDVIAI-ERR (HHHHHHYYMRDVIAIERR; CT33) | 96 |
| H6-TALPVGFSL-ERR (HHHHHHTALPVGFSLERR; CT90) | 79 |
| H6-SGPIGPPEI-ERR (HHHHHHSGPIGPPEIERR; CT48) | 70 |
| H6-PPQNMFEFP-ERR (HHHHHHPPQNMFEFPERR; CT82) | 67 |
| H6-RKIKGPYWL-ERR (HHHHHHRKIKGPYWLERR; CT91) | 52 |
| H6-IYSRTTDVL-ERR (HHHHHHIYSRTTDVLERR; CT76) | 64 |
| H6-LGYRYWTGI-ERR (HHHHHHLGYRYWTGIERR; CT92) | 41 |
| H6-VYFTINVNL-ERR (HHHHHHVYFTINVNLERR; CT32) | 43 |
| H6-RGEYEDPYY-ERR (HHHHHHRGEYEDPYYERR; CT56) | 35 |

| Substance | Experimental rank |
| --- | --- |
| H6-EYEKIEIPI-ERR (HHHHHHEYEKIEIPIERR; CT68) | 66 |
| H6-TPPSIFSTQ-ERR (HHHHHHTPPSIFSTQERR; CT49) | 73 |
| H6-RGGPKKCAL-ERR (HHHHHHRGGPKKCALERR; CT53) | 32 |
| H6-PTPRRFSPP-ERR (HHHHHHPTPRRFSPPERR; CT52) | 24 |
| H6-TY AIALINV-ERR (HHHHHHTYAIALINVERR; CT70) | 29 |
| H6-RHNTMLKAM-ERR (HHHHHHRHNTMLKAMERR; CT66) | 61 |
| H6-LNYPHITNL-ERR (HHHHHHLNYPHITNLERR; CT81) | 54 |
| H6-KGPRNIQLD-ERR (HHHHHHKGPRNIQLDERR; CT57) | 48 |
| H6-AYVNAIEKI-ERR (HHHHHHAYVNAIEKIERR; CT12) | 93 |
| H6-IPDEAMVKL-ERR (HHHHHHIPDEAMVKLERR; CT16) | 33 |
| H6-SEGNSSHTI-ERR (HHHHHHSEGNSSHTIERR; CT81) [CT80] | 31 |
| H6-TPPSHKLPL-ERR (HHHHHHTPPSHKLPLERR; CT55) | 23 |
| H6-CQIAMVHYI-ERR (HHHHHHCQIAMVHYIERR; CT61) | 10 |
| H6-HHTMMVQAI-ERR (HHHHHHHHTMMVQAIERR; CT24) | 86 |
| H6-KLLASALST-ERR (HHHHHHKLLASALSTERR; CT39*) | 5 |
| H6-SRLQSLTLI-ERR (HHHHHHSRLQSLTLIERR; CT72) | 7 |
| H6-CYVTYKGEI-ERR (HHHHHHCYVTYKGEIERR; CT9) | 89 |
| H6-RPIKGPRNI-ERR (HHHHHHRPIKGPRNIERR; CT18) | 47 |
| H6-SGPSYATYL-ERR (HHHHHHSGPSYATYLERR; CT1) | 62 |
| H6-SYETLKKSL-ERR (HHHHHHSYETLKKSLERR; CT7) | 94 |
| H6-KGPYWLEVK-ERR (HHHHHHKGPYWLEVKERR; CT44) | 44 |
| H6-RGPPPHSAP-ERR (HHHHHHRGPPPHSAPERR; H6 and ERR flanks; CT46) | 72 |
| H6-KYYAVNFSM-ERR [CT8] (HHHHHHKYYAVNFSMERR; CT8) | 88 |
| H6-MPQLFMVSK-ERR (HHHHHHMPQLFMVSKERR; CT100) | 16 |

| Substance | Experimental rank |
| --- | --- |
| H6-NALSSMGAL-ERR (HHHHHHNALSSMGALERR; CT40*) | 6 |
| H6-TYLQPAQAQ-ERR (HHHHHHTYLQPAQAQERR; CT75) | 12 |
| H6-PYFRLEHYL-ERR (HHHHHHPYFRLEHYLERR; CT27) | 87 |
| H6-AYVNATGEV-ERR (HHHHHHAYVNATGEVERR; CT13) | 95 |
| H6-KTPEL VEAL-ERR (HHHHHHKTPELVEALERR; CT36*) | 51 |
| H6-GPPGGFQEF-ERR [CT99] (HHHHHHGPPGGFQEFERR; CT99) | 53 |
| H6-SYQAALAEN-ERR (HHHHHHSYQAALAENERR; CT77) | 39 |
| H6-FYTSYLRRL-ERR (HHHHHHFYTSYLRRLERR; CT74) | 76 |
| H6-VVLETFYDL-ERR (HHHHHHVVLETFYDLERR; CT19) | 56 |
| H6-SFQPTADEL-ERR (HHHHHHSFQPTADELERR; CT62) | 11 |
| H6-KYFQAGKYE-ERR (HHHHHHKYFQAGKYEERR; CT69) | 21 |
| H6-PYLTALDDL-ERR (HHHHHHPYLTALDDLERR; CT28) | 82 |
| H6-PGPIKCVPI-ERR (HHHHHHPGPIKCVPIERR; CT3) | 22 |
| H6-TGPYVMMIG-ERR (HHHHHHTGPYVMMIGERR; CT6) | 84 |
| H6-HYLNDGDAI-ERR (HHHHHHHYLNDGDAIERR; H6 and ERR flanks; CT25) | 80 |
| H6-SYIKKLKEL-ERR (HHHHHHSYIKKLKELERR; CT29) | 90 |
| H6-KYYAVNFSM-ERR [CT95] (HHHHHHKYYAVNFSMERR; CT95) | 59 |
| H6-FPPQNMFEF-ERR [CT43] (HHHHHHFPPQNMFEFERR; CT43) | 15 |
| H6-IYLESVAIM-ERR (HHHHHHIYLESVAIMERR; CT78) | 50 |
| H6-RTPHVLWSW-ERR (HHHHHHRTPHVLWSWERR; CT41) | 40 |
| H6-TYWKGNPEM-ERR (HHHHHHTYWKGNPEMERR; CT31) | 97 |
| H6-LLYNAVVWL-ERR (HHHHHHLLYNAVVWLERR; CT93) | 27 |
| H6-NPRAMQVLL-ERR (HHHHHHNPRAMQVLLERR; CT20) | 38 |
